Values belong to the compound of their own block, whether it stands above or below them.
What was measured:
[1] = Solubility in organic solvents; type: physicochemical; details: solvents in which soluble
benzodiazepine receptor = assay: Benzodiazepine-receptor binding assay ([3H]-flunitrazepam displacement, ox cerebral cortex synaptosomal preparation); details: for IC50: [3H]-flunitrazepam 1 nM, pH 7.4
Protocol: The present compounds have shown activity in a benzodiazepine-receptor binding assay which uses a tritiated ligand specific for the receptor present on the purified GABA-Bz-Cl^- ionophore receptor complex. The details of the assay are set out in Example 5 which follows.
The receptor extract was a crude synaptosomal preparation isolated from ox cerebral cortex by the method of Lang et al (FEBS Lett., 104 149-153, 1979). Receptor binding was determined using a modification described by O'Beirne and Williams (Eur. J. Biochem, 175 413-421, 1988) of the method of Braestrup and Squires (PNAS 74 3805-3809, 1977). The receptor preparation was incubated in 50 mM Tris/Cl, pH 7.4, with compound A and [^3 H]-flunitrazepam (agonist) at a final concentration of 1 nM. Bound radioligand was harvested on to glass fibre filters and measured by liquid scintillation counting. Non-specific binding was determined by displacement of ligand with Diazepam (1 μM).
Binding data were fitted to one or two site models by weighted non-linear regression analysis using the computer programs `LIGAND` (Munson and Rodbard: Analytic Biochem 107 220-239, 1980) and `EBDA` (McPherson-Computer Prog. in Biomed. 7 107-114, 1983).
The method described above was repeated using each of compounds B and C described in Examples 3 and 4 respectively, and also using compound D, which is the sodium salt of compound A.
IC50 values were also determined for compounds A', E and F described in Examples 5 to 7 respectively.

Compound: C/C1=C\CC(C)(C)/C=C/C[C@@]2(C)Oc3c4c(cc(O)c(=O)c3O)CO[C@H]4[C@@H]2CC1 [Compound C]
Solubility [1]: Methanol, acetone, ethyl acetate
IC50 (benzodiazepine receptor): 20 µM
% Inhibition (benzodiazepine receptor; concentration 80 nM): 9%
% Inhibition (benzodiazepine receptor; concentration 240 nM): -3%
% Inhibition (benzodiazepine receptor; concentration 800 nM): 9%
% Inhibition (benzodiazepine receptor; concentration 2 μM): 12%
% Inhibition (benzodiazepine receptor; concentration 8 μM): 35%
% Inhibition (benzodiazepine receptor; concentration 24 μM): 54%
% Inhibition (benzodiazepine receptor; concentration 80 μM): 77%
% Inhibition (benzodiazepine receptor; concentration 242 μM): 88%

Compound: C/C1=C\CC(C)(C)/C=C/C[C@@]2(C)OC3=C(O)C(=O)[C@H]4CO[C@H]([C@@H]34)[C@@H]2CC1 [Compound D]
IC50 (benzodiazepine receptor): 0.01 µM
% Inhibition (benzodiazepine receptor; concentration 5 nM): 45%
% Inhibition (benzodiazepine receptor; concentration 10 nM): 45%
% Inhibition (benzodiazepine receptor; concentration 50 nM): 70%
% Inhibition (benzodiazepine receptor; concentration 100 nM): 65%
% Inhibition (benzodiazepine receptor; concentration 500 nM): 81%
% Inhibition (benzodiazepine receptor; concentration 1 μM): 86%
% Inhibition (benzodiazepine receptor; concentration 5 μM): 98%
% Inhibition (benzodiazepine receptor; concentration 10 μM): 100%
% Inhibition (benzodiazepine receptor; concentration 50 μM): 103%
% Inhibition (benzodiazepine receptor; concentration 100 μM): 92%

Continued by falling IC50 (benzodiazepine receptor), values first:

IC50 (benzodiazepine receptor): 5 µM
% Inhibition (benzodiazepine receptor; concentration 18 nM): 21%
% Inhibition (benzodiazepine receptor; concentration 53 nM): 21%
% Inhibition (benzodiazepine receptor; concentration 177 nM): 36%
% Inhibition (benzodiazepine receptor; concentration 530 nM): 42%
% Inhibition (benzodiazepine receptor; concentration 2 μM): 53%
% Inhibition (benzodiazepine receptor; concentration 5 μM): 69%
% Inhibition (benzodiazepine receptor; concentration 18 μM): 82%
% Inhibition (benzodiazepine receptor; concentration 53 μM): 92%
% Inhibition (benzodiazepine receptor; concentration 177 μM): 78%
Compound: C/C1=C\CC(C)(C)/C=C/C[C@@]2(C)Oc3c4c(c(O)c(O)c(=O)c3O)CO[C@H]4[C@@H]2CC1 [Compound B]
Solubility [1]: Methanol, ethyl acetate, chloroform, acetone

Solubility [1]: methanol
IC50 (benzodiazepine receptor): 3 µM
% Inhibition (benzodiazepine receptor; concentration 2.7 × 10^-4 M): 94%
% Inhibition (benzodiazepine receptor; concentration 2.7 × 10^-5 M): 77%
% Inhibition (benzodiazepine receptor; concentration 2.7 × 10^-6 M): 48%
% Inhibition (benzodiazepine receptor; concentration 2.7 × 10^-7 M): 33%
% Inhibition (benzodiazepine receptor; concentration 2.7 × 10^-8 M): 24%
% Inhibition (benzodiazepine receptor; concentration 9.0 × 10^-5 M): 89%
% Inhibition (benzodiazepine receptor; concentration 9.0 × 10^-6 M): 65%
% Inhibition (benzodiazepine receptor; concentration 9.0 × 10^-7 M): 41%
% Inhibition (benzodiazepine receptor; concentration 9.0 × 10^-8 M): 27%
% Inhibition (benzodiazepine receptor; concentration 9.0 × 10^-9 M): 15%
Compound: C/C1=C\CC(C)(C)/C=C/C[C@@]2(C)OC3=C4C(=CC(=O)C3=O)CO[C@H]4[C@@H]2CC1 [Compound F]

Solubility [1]: methanol, ethyl acetate
IC50 (benzodiazepine receptor): 0.5 µM
% Inhibition (benzodiazepine receptor; concentration 4.8 × 10^-5 M): 101%
% Inhibition (benzodiazepine receptor; concentration 4.8 × 10^-6 M): 88%
% Inhibition (benzodiazepine receptor; concentration 4.8 × 10^-7 M): 52%
% Inhibition (benzodiazepine receptor; concentration 4.8 × 10^-8 M): 37%
% Inhibition (benzodiazepine receptor; concentration 4.8 × 10^-9 M): 22%
% Inhibition (benzodiazepine receptor; concentration 9.5 × 10^-5 M): 104%
% Inhibition (benzodiazepine receptor; concentration 9.5 × 10^-6 M): 93%
% Inhibition (benzodiazepine receptor; concentration 9.5 × 10^-7 M): 65%
% Inhibition (benzodiazepine receptor; concentration 9.5 × 10^-8 M): 42%
% Inhibition (benzodiazepine receptor; concentration 9.5 × 10^-9 M): 27%
Compound: C/C1=C\CC(C)(C)/C=C/C[C@@]2(C)Oc3c(O)c(O)cc4c3[C@@H](OC4)[C@@H]2CC1 [Compound E]

Solubility [1]: Methanol, acetone, ethyl acetate
IC50 (benzodiazepine receptor): 0.04 µM
% Inhibition (benzodiazepine receptor; concentration 3 nM): 11%
% Inhibition (benzodiazepine receptor; concentration 9 nM): 35%
% Inhibition (benzodiazepine receptor; concentration 28 nM): 44%
% Inhibition (benzodiazepine receptor; concentration 93 nM): 65%
% Inhibition (benzodiazepine receptor; concentration 280 nM): 80%
% Inhibition (benzodiazepine receptor; concentration 930 nM): 92%
% Inhibition (benzodiazepine receptor; concentration 3 μM): 93%
% Inhibition (benzodiazepine receptor; concentration 9 μM): 99%
% Inhibition (benzodiazepine receptor; concentration 28 μM): 106%
% Inhibition (benzodiazepine receptor; concentration 93 μM): 107%
Compound: C/C1=C\CC(C)(C)/C=C/C[C@@]2(C)OC3=C(O)C(=O)[C@H]4CO[C@H]([C@@H]34)[C@@H]2CC1 [Compound A]

Source: patent US5565486A, “Sesquiterpenes, their preparation and their use as inhibitors acting on the gaba-benzodiazepine receptor” (Xenova Limited, priority 1992, dated 1996)
